Assay results taken from patent US20240000872A1, “NOVEL BACTERIOPHAGE THAT LYSES ACINETOBACTER GENUS BACTERIA HAVING RESISTANCE TO ANTIBIOTICS” (priority 2020, published 2024).

Test system: Acinetobacter baumannii strains
Experiment: Antibiotic susceptibility test (CLSI disk diffusion test method, read per CLSI 2016)
Assay type: cell-based
Method: (§1) Strain identification was performed using a kit such as AT 32 GN system (bioMérieux, Marcy l'Etoile, France). […] In Table 2 below, S, I, and R are the results obtained by evaluating susceptibility to the antibacterial agents, in which ‘S’ means susceptible, ‘I’ means intermediate, and ‘R’ means resistant.
as §1, with “as ATB” for “as AT”, “system (bioMédrieux,” for “system (bioMérieux,”, “Table 6” for “Table 2”
as §1, with “as ATB” for “as AT”, “Table 10” for “Table 2”, “susceptible, T” for “susceptible, ‘I’”

CN(C)c1cc(NC(=O)CNC(C)(C)C)c(O)c2c1C[C@H]1C[C@H]3[C@H](N(C)C)C(O)=C(C(N)=O)C(=O)[C@@]3(O)C(O)=C1C2=O [Tigecycline, tigecycline]
S: antibiotic susceptibility class (host strain YMC14/01/C29) | antibiotic susceptibility class (host strain YMC14/01/IP122) | antibiotic susceptibility class (host strain YMC14/01/L8) | antibiotic susceptibility class (host strain YMC14/01/P31) | antibiotic susceptibility class (host strain YMC14/01/P117) | antibiotic susceptibility class (host strain YMC14/01/P728) | antibiotic susceptibility class (host strain YMC14/01/R130) | antibiotic susceptibility class (host strain YMC14/01/R160) | antibiotic susceptibility class (host strain YMC14/01/R198) | antibiotic susceptibility class (host strain YMC14/01/R257) | antibiotic susceptibility class (host strain YMC14/01/R270) | antibiotic susceptibility class (host strain YMC14/01/R324) | antibiotic susceptibility class (host strain YMC14/01/R443) | antibiotic susceptibility class (host strain YMC14/01/R451) | antibiotic susceptibility class (host strain YMC14/01/R617) | antibiotic susceptibility class (host strain YMC14/01/R671) | antibiotic susceptibility class (host strain YMC14/01/R767) | antibiotic susceptibility class (host strain YMC14/01/R904) | antibiotic susceptibility class (host strain YMC14/01/R905) | antibiotic susceptibility class (host strain YMC14/01/R921) | antibiotic susceptibility class (host strain YMC14/01/R1006) | antibiotic susceptibility class (host strain YMC14/01/R1199) | antibiotic susceptibility class (host strain YMC14/01/R1659) | antibiotic susceptibility class (host strain YMC14/01/R1722) | antibiotic susceptibility class (host strain YMC14/01/R1752) | antibiotic susceptibility class (host strain YMC14/01/R2429) | antibiotic susceptibility class (host strain YMC14/01/R2855) | antibiotic susceptibility class (host strain YMC14/01/R2945) | antibiotic susceptibility class (host strain YMC14/01/R3007) | antibiotic susceptibility class (host strain YMC14/01/R3317) | antibiotic susceptibility class (host strain YMC14/01/R3474) | antibiotic susceptibility class (host strain YMC14/01/R3574) | antibiotic susceptibility class (host strain YMC14/01/U318) | antibiotic susceptibility class (host strain YMC14/02/L18) | antibiotic susceptibility class (host strain YMC14/02/R2417) | antibiotic susceptibility class (host strain YMC14/02/R2599) | antibiotic susceptibility class (host strain YMC14/02/R2781) | antibiotic susceptibility class (host strain YMC14/02/R3106) | antibiotic susceptibility class (host strain YMC14/02/U1607) | antibiotic susceptibility class (host strain YMC14/03/L9) | antibiotic susceptibility class (host strain YMC14/03/P471) | antibiotic susceptibility class (host strain YMC14/03/R217) | antibiotic susceptibility class (host strain YMC14/03/R618) | antibiotic susceptibility class (host strain YMC14/03/R2144) | antibiotic susceptibility class (host strain YMC14/03/U4616) | antibiotic susceptibility class (host strain YMC14/04/R1078) | antibiotic susceptibility class (host strain YMC14/04/R1080) | antibiotic susceptibility S/I/R (host strain YMC14/06/R2359) | susceptibility category (S/I/R) (host strain YMC14/06/R2359) | antibiotic susceptibility S/I/R (host strain YMC14/08/T90) | susceptibility category (S/I/R) (host strain YMC14/08/T90) | antibiotic susceptibility S/I/R (host strain YMC15/02/T28) | susceptibility category (S/I/R) (host strain YMC15/02/T28) | antibiotic susceptibility S/I/R (host strain YMC15/03/R1604) | susceptibility category (S/I/R) (host strain YMC15/03/R1604) | antibiotic susceptibility S/I/R (host strain YMC16/01/P11) | susceptibility category (S/I/R) (host strain YMC16/01/P11) | antibiotic susceptibility S/I/R (host strain YMC16/01/R123) | susceptibility category (S/I/R) (host strain YMC16/01/R123) | antibiotic susceptibility S/I/R (host strain YMC16/01/R198) | susceptibility category (S/I/R) (host strain YMC16/01/R198) | antibiotic susceptibility S/I/R (host strain YMC16/01/R353) | susceptibility category (S/I/R) (host strain YMC16/01/R353) | antibiotic susceptibility S/I/R (host strain YMC16/01/R380) | susceptibility category (S/I/R) (host strain YMC16/01/R380) | antibiotic susceptibility S/I/R (host strain YMC16/01/R397) | susceptibility category (S/I/R) (host strain YMC16/01/R397) | antibiotic susceptibility S/I/R (host strain YMC16/05/R2210) | susceptibility category (S/I/R) (host strain YMC16/05/R2210) | antibiotic susceptibility S/I/R (host strain YMC16/07/R2512) | susceptibility category (S/I/R) (host strain YMC16/07/R2512) | antibiotic susceptibility S/I/R (host strain YMC16/09/R2471) | susceptibility category (S/I/R) (host strain YMC16/09/R2471) | antibiotic susceptibility S/I/R (host strain YMC16/10/R2537) | susceptibility category (S/I/R) (host strain YMC16/10/R2537) | antibiotic susceptibility S/I/R (host strain YMC16/12/B11422) | susceptibility category (S/I/R) (host strain YMC16/12/B11422) | antibiotic susceptibility S/I/R (host strain YMC16/12/B11449) | susceptibility category (S/I/R) (host strain YMC16/12/B11449) | antibiotic susceptibility S/I/R (host strain YMC16/12/B13325) | susceptibility category (S/I/R) (host strain YMC16/12/B13325) | antibiotic susceptibility S/I/R (host strain YMC16/12/P503) | susceptibility category (S/I/R) (host strain YMC16/12/P503) | antibiotic susceptibility S/I/R (host strain YMC17/01/B10087) | susceptibility category (S/I/R) (host strain YMC17/01/B10087) | antibiotic susceptibility S/I/R (host strain YMC17/01/B12075) | susceptibility category (S/I/R) (host strain YMC17/01/B12075) | antibiotic susceptibility S/I/R (host strain YMC17/01/B13454) | susceptibility category (S/I/R) (host strain YMC17/01/B13454) | antibiotic susceptibility S/I/R (host strain YMC17/01/P518) | susceptibility category (S/I/R) (host strain YMC17/01/P518) | antibiotic susceptibility S/I/R (host strain YMC17/02/B14) | susceptibility category (S/I/R) (host strain YMC17/02/B14) | antibiotic susceptibility S/I/R (host strain YMC17/02/B87) | susceptibility category (S/I/R) (host strain YMC17/02/B87) | antibiotic susceptibility S/I/R (host strain YMC17/02/B721) | susceptibility category (S/I/R) (host strain YMC17/02/B721) | antibiotic susceptibility S/I/R (host strain YMC17/02/B4039) | susceptibility category (S/I/R) (host strain YMC17/02/B4039) | antibiotic susceptibility S/I/R (host strain YMC17/02/B4520) | susceptibility category (S/I/R) (host strain YMC17/02/B4520) | antibiotic susceptibility S/I/R (host strain YMC17/02/B4864) | susceptibility category (S/I/R) (host strain YMC17/02/B4864) | antibiotic susceptibility S/I/R (host strain YMC17/02/P523) | susceptibility category (S/I/R) (host strain YMC17/02/P523) | antibiotic susceptibility S/I/R (host strain YMC17/02/R2392) | susceptibility category (S/I/R) (host strain YMC17/02/R2392) | antibiotic susceptibility S/I/R (host strain YMC17/03/B5000) | susceptibility category (S/I/R) (host strain YMC17/03/B5000) | antibiotic susceptibility S/I/R (host strain YMC17/03/R348) | susceptibility category (S/I/R) (host strain YMC17/03/R348) | antibiotic susceptibility S/I/R (host strain YMC17/03/R3279) | susceptibility category (S/I/R) (host strain YMC17/03/R3279) | antibiotic susceptibility S/I/R (host strain YMC17/03/R4607) | susceptibility category (S/I/R) (host strain YMC17/03/R4607) | antibiotic susceptibility S/I/R (host strain YMC17/04/R488) | susceptibility category (S/I/R) (host strain YMC17/04/R488)
R: antibiotic susceptibility class (host strain YMC14/01/P727) | antibiotic susceptibility class (host strain YMC14/01/R560) | antibiotic susceptibility class (host strain YMC14/01/R732) | antibiotic susceptibility class (host strain YMC14/01/R941) | antibiotic susceptibility class (host strain YMC14/01/R958) | antibiotic susceptibility class (host strain YMC14/01/U313) | antibiotic susceptibility class (host strain YMC14/02/R2668) | antibiotic susceptibility class (host strain YMC14/02/R2758) | antibiotic susceptibility class (host strain YMC14/02/R3419) | antibiotic susceptibility class (host strain YMC14/03/R122) | antibiotic susceptibility class (host strain YMC14/03/R380) | antibiotic susceptibility S/I/R (host strain YMC14/08/R1169) | susceptibility category (S/I/R) (host strain YMC14/08/R1169) | antibiotic susceptibility S/I/R (host strain YMC16/01/R405) | susceptibility category (S/I/R) (host strain YMC16/01/R405) | antibiotic susceptibility S/I/R (host strain YMC17/01/B8053) | susceptibility category (S/I/R) (host strain YMC17/01/B8053) | antibiotic susceptibility S/I/R (host strain YMC17/02/B8414) | susceptibility category (S/I/R) (host strain YMC17/02/B8414) | antibiotic susceptibility S/I/R (host strain YMC17/03/B4730) | susceptibility category (S/I/R) (host strain YMC17/03/B4730) | antibiotic susceptibility S/I/R (host strain YMC17/03/P971) | susceptibility category (S/I/R) (host strain YMC17/03/P971) | antibiotic susceptibility S/I/R (host strain YMC17/03/R1888) | susceptibility category (S/I/R) (host strain YMC17/03/R1888) | antibiotic susceptibility S/I/R (host strain YMC17/03/R4077) | susceptibility category (S/I/R) (host strain YMC17/03/R4077) | antibiotic susceptibility S/I/R (host strain YMC17/04/R640) | susceptibility category (S/I/R) (host strain YMC17/04/R640)
I: antibiotic susceptibility class (host strain YMC14/01/P224) | antibiotic susceptibility class (host strain YMC14/01/R2572) | antibiotic susceptibility class (host strain YMC14/01/R3129) | antibiotic susceptibility class (host strain YMC14/02/P47) | antibiotic susceptibility class (host strain YMC14/02/R1860) | susceptibility category (S/I/R) (host strain YMC15/02/R436) | susceptibility category (S/I/R) (host strain YMC15/09/R1869) | susceptibility category (S/I/R) (host strain YMC16/03/R4461) | susceptibility category (S/I/R) (host strain YMC16/12/R4637) | susceptibility category (S/I/R) (host strain YMC17/01/R2812) | susceptibility category (S/I/R) (host strain YMC17/02/R541) | susceptibility category (S/I/R) (host strain YMC17/03/R585) | susceptibility category (S/I/R) (host strain YMC/17/05/R1095)
